Assay results as given in ChEMBL document CHEMBL3351388, “Identification of two novel RET kinase inhibitors through MCR-based drug discovery: design, synthesis and evaluation” (Eur J Med Chem, 2014).

Target: Proto-oncogene tyrosine-protein kinase receptor Ret (Homo sapiens, UniProt P07949)
Experiment: Inhibition of RET (unknown origin) pre-incubated for 60 mins before substrate addition in presence of 9 uM ATP by microfluidic assay

Sequence of Proto-oncogene tyrosine-protein kinase receptor Ret (P07949 whole entry): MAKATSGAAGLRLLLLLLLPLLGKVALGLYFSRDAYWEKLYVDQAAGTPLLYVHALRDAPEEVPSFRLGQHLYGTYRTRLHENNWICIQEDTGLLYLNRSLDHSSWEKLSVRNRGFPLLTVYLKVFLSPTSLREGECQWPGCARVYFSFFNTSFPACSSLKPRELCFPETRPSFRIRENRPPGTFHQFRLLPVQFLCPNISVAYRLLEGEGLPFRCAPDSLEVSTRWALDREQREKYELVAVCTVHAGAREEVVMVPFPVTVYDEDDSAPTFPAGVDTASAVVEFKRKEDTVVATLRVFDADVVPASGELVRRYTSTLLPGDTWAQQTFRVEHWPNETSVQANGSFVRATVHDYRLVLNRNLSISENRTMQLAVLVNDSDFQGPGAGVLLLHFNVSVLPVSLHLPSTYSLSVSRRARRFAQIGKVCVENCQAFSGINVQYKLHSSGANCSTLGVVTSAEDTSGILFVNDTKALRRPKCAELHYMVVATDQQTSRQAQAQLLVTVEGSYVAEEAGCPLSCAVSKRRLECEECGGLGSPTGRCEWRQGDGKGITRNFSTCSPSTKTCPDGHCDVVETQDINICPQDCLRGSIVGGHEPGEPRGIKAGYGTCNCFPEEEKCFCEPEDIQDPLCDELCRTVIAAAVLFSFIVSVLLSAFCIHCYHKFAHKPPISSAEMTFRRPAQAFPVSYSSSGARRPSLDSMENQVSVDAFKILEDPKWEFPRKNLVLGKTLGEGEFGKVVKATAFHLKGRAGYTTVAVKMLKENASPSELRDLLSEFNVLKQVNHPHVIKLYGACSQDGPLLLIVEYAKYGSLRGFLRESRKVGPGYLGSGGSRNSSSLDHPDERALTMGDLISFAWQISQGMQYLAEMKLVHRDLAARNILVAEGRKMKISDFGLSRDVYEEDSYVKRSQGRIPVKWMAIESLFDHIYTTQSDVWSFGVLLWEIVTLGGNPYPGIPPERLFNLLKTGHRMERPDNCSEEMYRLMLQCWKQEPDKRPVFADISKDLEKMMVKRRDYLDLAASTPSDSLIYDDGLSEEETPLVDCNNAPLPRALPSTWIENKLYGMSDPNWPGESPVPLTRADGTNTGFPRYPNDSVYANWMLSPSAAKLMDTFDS

SMILES	IC50 [µM]
O=C(Cc1ccc(-c2ccc3nccn3c2)cc1)Nc1cccc(Br)c1	> 100
O=C(Cc1ccc(-c2ccc3nccn3c2)cc1)Nc1cccc(F)c1	> 100
Cc1cccc(NC(=O)Cc2ccc(-c3ccc4nccn4c3)cc2)c1	> 100
